Measurements reported in patent US20050014751A1, “Use of n-acyl homoserine lactones for the treatment of insulitis” (priority 2001, published 2005).
“And” between values parts separate entries of the source, which are not always exact repeats. Equal entries are not always repeated.

How the values were obtained:
insulitis in NOD mice = assay: Effect of OdDHL on insulitis in NOD mice (slide score); type: in vivo; details: 3 times a week for four weeks
Procedure: To investigate the effect of OdDHL on insulitis or type I diabetes mellitus, mice (NOD) with a genetic predisposition to develop IDDM (insulin dependent diabetes mellitus) were treated with OdDHL. The animals were dosed at […] intraperitoneally from 4 weeks of age, 3 times a week for four weeks. Insulitis was assessed at 14 weeks. In the table a score of 3 or more (DMSO and PBS) represents severe grade insulitis and 1.3 (OdDHL) represents little infiltration (a score of 1 would represent low grade peri-insulitis). The mice were scored according to the method of Beales et al (European Journal of Pharmacology 357(1998) 221-225).

TNF-alpha production = TNF-alpha production from LPS-stimulated human PBMC; type: cell-based; details: LPS 5×10^−5 μg/ml, 100,000 PBMC, 24 h, ELISA
Procedure: Bacterial lipopolysaccharide (LPS) stimulates the production of a variety of cytokines, including TNF-alpha, from human PBMC; these cytokines in turn influence the development of T cells, supporting a T helper 1 conducive milieu. Human PBMC prepared from whole blood by buoyant density centrifugation were resuspended in CTCM. HSL compounds were again tested at similar dilutions as for murine splenocytes in 200 μl of CTCM, containing 5×10^−5 μg/ml LPS Escherichia coli strain 055:B5 (Sigma, Poole, UK) and 100,000 PBMC. Following incubation for 24 h at 37° C. in 5% CO2-air, the cell culture supernatants were collected and tested for TNF-alpha levels by ‘sandwich’ ELISA. Briefly, 96-well Nunc MaxiSorp (Life Technologies, Paisley, UK) plates were coated with 50 μl of a 2 μg/ml solution of mouse anti-human TNF-alpha monoclonal antibody (Pharmingen, UK) in 0.05 M carbonate/bicarbonate buffer, pH 9.6 overnight at 4° C. After washing the plates three times with PBS-Tween, which contained phosphate buffered saline (PBS) with 0.5% (vol/vol) Tween 20 (Sigma, Poole, UK), the plates were blocked with 1% (wt/vol) bovine serum albumin (BSA) (Sigma, Poole, UK) at room temperature for 2 h. […] Following four washes, the bound biotinylated antibody was detected with 50 μl of a 1:1,000 dilution of Streptavidin-peroxidase (Pharmingen, UK). […] The enzyme reaction was stopped with 50 μl of 2.5 M H2SO4 after an incubation of 10 minutes at room temperature and the development was read at 450 nm with a spectrophotometric 96-well plate reader (Dynex). […]
Similar studies were carried out using, as the HSL compounds, N-(12-bromo-3-oxododecanoyl)-L-homoserine lactone (12BrOdDHL) and N-(12-hydroxy-3-oxododecanoyl)-L-homoserine lactone (12hydroxyOdDHL) and the plots for these are shown in FIG. 9. […] The IC50 value for dexamethasone was determined to be 500.
In the cell culture assays the number of cells used (mouse splenocytes and human PBMC) was initially optimised to 100,000 cells per well. The optimal dose of ConA of 1 μg/ml used in the cell proliferation assays was determined from ConA titration curves. […]

NOD mice = assay: Comparative immune toxicity assessment in NOD mice; type: in vivo
Procedure: The overt immune toxicity of OdDHL was investigated using the dose regime described above in Example 5 for the alleviation of insulitis or diabetes in NOD mice. […] Splenocytes from the mice were taken along the time course of treatment (3 times a week for 4 weeks) and were stained with anti-CD-3 (pan T-cell), anti-CD4 (helper T-cell), anti-CD8 (cytotoxic T-cell) and anti-CD19 (B cell) antibodies for 30 minutes on ice. Cells were washed twice in PBS/BSA and then fixed in 0.5% formaldehyde. Cell phenotypes were analysed on BD FACScan.

diabetes in NOD mice = assay: Alleviation of diabetes in NOD mice (incidence of diabetes, Uristix); type: in vivo; details: above 6 mMol glucose/l = diabetes
Procedure: The ability of the lead compound (OdDHL) to alleviate diabetes in NOD mice was determined by treating the mice 3 times per week for 4 weeks at 30 mg/kg as above. DMSO and OHHL were used as controls.
Diabetes was diagnosed using Uristix and a level of above 6 mMol glucose/I was taken to indicate the presence of diabetes.

[1] = Comparative assay performed in vivo (OdDHL vs CSA and dexamethasone); details: compared with CSA and dexamethasone
Text: From this it is believed that a similar result will be achieved for insulitis.

murine spleen cells = details: Infection and Immunity, vol.66, no.1, January 1998; cited from earlier work

CCCCCCCCCC(=O)CC(=O)N[C@H]1CCOC1=O [OdDHL, N-(3-oxododecanoyl)-L-homoserine Lactone]
Slide Score (insulitis), individual animal (insulitis in NOD mice; 100 mg/kg intraperitoneally from 4 weeks of age, insulitis assessed at 14 weeks, one value per animal, 100 mg/kg): 1.936 and 1.478 and 1.154 and 1.000 and 1.418
Slide Score (insulitis), Group Total (insulitis in NOD mice; 100 mg/kg intraperitoneally, assessed at 14 weeks): 6.986
Slide Score (insulitis), Group Mean (insulitis in NOD mice; 100 mg/kg intraperitoneally, assessed at 14 weeks, score of 3 or more = severe grade insulitis, 1 = low grade peri-insulitis, 100 mg/kg): 1.397
inhibition of TNF-α secretion (FIG. 8) (TNF-alpha production): inhibited the secretion
overt immune toxicity (CD3, CD4, CD8, CD19 splenocyte populations, FACScan, FIG. 12) (NOD mice; 3 times a week for 4 weeks): lack of overt immune toxicology
body weight gain of treated mice (NOD mice; dose regime of Example 5, vs non-treated littermates): gained weight identically to their non-treated littermates
incidence of diabetes (diabetes in NOD mice; Week of Experiment 20, 30 mg/kg 3 times per week for 4 weeks): 0/11
incidence of diabetes (diabetes in NOD mice; Week of Experiment 30, 30 mg/kg 3 times per week for 4 weeks, week 30 of experiment): 5/20
comparative performance in vivo [1]: performed better than CSA and dexamethasone
inhibition of concanavalin A mitogen stimulated proliferation of murine spleen cells (murine spleen cells): inhibiting
